According to patent publication US20260116845A1, “LIPIDS AND COMPOSITIONS THEREOF” (Kernal Biologics, Inc., priority 2023, published 2026):

What was measured:
Assay type in all cases: cell-based
Details in all cases: 200 ng Fluc mRNA-LNP, 24 hours; Table 4
[1] = system: AML12 Cell Line; experiment: Transfection of AML12 Cell Line with FLuc mRNA LNPs (ONE-Glo EX luciferase signal)
Procedure: (§1) mRNA encapsulated lipid nanoparticles (mRNA LNPs) were formulated using microfluidic mixing with a PNI Ignite instrument. Briefly, lipids (ionizable: structural: helper: PEG) were dissolved in ethanol and mixed with and aqueous solution of mRNA. These mRNA-loaded dispersions were then neutralized via a buffer exchange with a pre-determined buffer overnight. Afterwards, formed LNPs were concentrated with Amicon filter centrifugation, filtered, concentration of mRNA determined through a ribogreen assay, and frozen at −80° C. until use.
(§2) Cell lines were grown to confluence in T75 flasks using complete media of DMEM-F12 for AML12 and DMEM for both B16F10 and MC38.K. Cells were plated in a white 96 flat-well plate (AML12=20,000 cells/well, B16F10 and MC38.K=5,000 cells/well) with their respected media. Lipid nanoparticles were first diluted to 50 μg/ml using Opti-MEM and pre-incubated with mouse serum for 30 minutes to give an LNP concentration of 8 μg/ml. Cell media was replaced with Opti-MEM and LNPs were added to cells (200 ng of mRNA-LNP), placed back in the incubator, and allowed to transfect for 24 hours. Afterwards, 100 μl of Promega's ONE-Glo™ EX Luciferase Assay System or Promega's CellTiter-Glo® Luminescent Cell Viability Assay was added and mixed in their respective wells, followed by recording luminescence signals on a Thermo Scientific Varioskan LUX multimode microplate reader. The results are shown in FIG. 1, FIG. 2, FIG. 3, FIG. 4, FIG. 5, FIG. 6, FIG. 10, FIG. 11, and FIG. 21.

[2] = system: B16F10 Cell Line; experiment: Transfection of B16F10 Cell Line with FLuc mRNA LNPs (ONE-Glo EX luciferase signal)
Procedure: as §1, §2

[3] = system: MC38.K Cell Line; experiment: Transfection of MC38.K Cell Line with FLuc mRNA LNPs (ONE-Glo EX luciferase signal)
Procedure: as §1, §2

SMILES	Total Luciferin Signal (RLU) In Vitro - AML12 [1]	Total Luciferin Signal (RLU) In Vitro - B16F10 [2]	Total Luciferin Signal (RLU) In Vitro - MC38.K [3]
CCCCCCCCC(CCCCCCCC)OC(=O)CCCCCCCN(CCCCCCCC(=O)OCCCCCCCCC(C)C)CCOC(=O)CCCN(C)CCO [Compound 5]	2.04E+05 RLU	1.79E+06 RLU	4.09E+06 RLU
CCCCCCCCC(CCCCCCCC)C(=O)OCCCCCCCN(CCCCCC(=O)OCCCCCCCCC(C)C)CCOC(=O)CCCN(C)C [Compound 7]	1.48E+06 RLU	1.11E+06 RLU	1.35E+06 RLU
CCCCCCCCC(CCCCCCCC)C(=O)OCCCCCCCN(CCCCCOC(=O)CCCCCCCCC(C)C)CCOC(=O)CCCN(C)C [Compound 13]	1.44E+06 RLU	2.12E+06 RLU	7.83E+05 RLU
CCCCCCCCC(CCCCCCCC)OC(=O)CCCCCCCN(CCCCCOC(=O)CCCCCCCCC(C)C)CCOC(=O)CCCN(C)C [Compound 15]	1.53E+06 RLU	1.97E+06 RLU	6.94E+05 RLU
CCCCCCCCC(CCCCCCCC)OC(=O)CCCCCN(CCCCCC(=O)OCCCCCCCCCCC(C)C)CCOC(=O)CCCN(C)C [Compound 17]	6.34E+05 RLU	2.64E+06 RLU	1.15E+06 RLU
CCCCCCCCC(CCCCCCCC)OC(=O)CCCCCCCN(CCO)CCCCCCCC(=O)OCCCCCCCCF [Compound 21]	4.09E+05 RLU	1.03E+05 RLU	1.16E+06 RLU
CCCCCCCCC(CCCCCCCC)OC(=O)CCCCCCCN(CCCCCCCC(=O)OCCCCCCCCF)CCOC(=O)CCCN(C)C [Compound 22]	1.24E+05 RLU	5.04E+05 RLU	2.65E+06 RLU
CCCCCCCCC(CCCCCCCF)OC(=O)CCCCCCCN(CCO)CCCCCC(=O)OCCCCCCCCC(C)C (stereo not drawn) [Compound 28]	1.65E+05 RLU	2.34E+05 RLU	5.09E+05 RLU
CCCCCCCCC(CCCCCCCC)OC(=O)CCCCCCCN(CCO)CCCCCCCC(=O)OC(CCCCCCCC)CCCCCCCC [Compound 44]	8.87E+05 RLU	1.26E+06 RLU	3.17E+06 RLU
CCCCCCCCC(CCCCCCCC)C(=O)OCCCCCCCN(CCO)CCCCCCCOC(=O)C(CCCCCCCC)CCCCCCCC [Compound 46]	1.30E+06 RLU	1.48E+06 RLU	4.59E+06 RLU
CCCCCCCCCC(=O)OCCCCCCCN(CCO)CCCCCCCOC(=O)CCCCCCCCC [Compound 47]	3.52E+04 RLU	3.88E+04 RLU	5.18E+04 RLU
CC(C)CCCCCCCCC(=O)OCCCCCCCN(CCO)CCCCCCCOC(=O)CCCCCCCCC(C)C [Compound 48]	3.31E+06 RLU	4.45E+06 RLU	2.17E+06 RLU
CCCCCCCCCCCOC(=O)CCCCCN(CCO)CCCCCC(=O)OCCCCCCCCCCC [Compound 49]	1.75E+04 RLU	9.79E+03 RLU	2.99E+04 RLU
